IC50 and inhibition data for eight compounds are collected here from ChEMBL document CHEMBL1806373, “Synthesis and biological evaluation of piperamide analogues as HDAC inhibitors” (Bioorg Med Chem Lett, 2011).

Assay [1] addresses T1, Histone deacetylase 1 (Homo sapiens, UniProt Q13547). The assay is described as follows: Inhibition of human recombinant HDAC1 expressed in baculovirus infected insect High5 cells using Ac-Lys-Tyr-Lys(epsilon-acetyl)-AMC as substrate by fluorescence assay.
The target of assay [2] is T2, Histone deacetylase 3 (Homo sapiens, UniProt O15379). As to the kind of experiment: Inhibition of human recombinant HDAC3 expressed in baculovirus infected insect High5 cells using Ac-Lys-Tyr-Lys(epsilon-acetyl)-AMC as substrate by fluorescence assay.
T2 sequence (O15379 whole entry): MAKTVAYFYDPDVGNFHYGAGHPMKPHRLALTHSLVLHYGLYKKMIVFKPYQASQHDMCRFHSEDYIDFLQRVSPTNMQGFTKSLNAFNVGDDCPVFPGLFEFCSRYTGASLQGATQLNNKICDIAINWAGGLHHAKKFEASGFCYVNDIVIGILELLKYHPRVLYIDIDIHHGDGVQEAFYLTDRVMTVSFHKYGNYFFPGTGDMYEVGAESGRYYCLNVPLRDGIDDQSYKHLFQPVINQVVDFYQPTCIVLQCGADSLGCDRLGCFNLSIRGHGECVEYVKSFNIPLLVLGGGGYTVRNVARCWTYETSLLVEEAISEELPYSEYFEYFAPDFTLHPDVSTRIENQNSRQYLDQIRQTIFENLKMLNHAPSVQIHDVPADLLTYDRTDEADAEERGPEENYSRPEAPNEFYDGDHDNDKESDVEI
For assay [3], the target named is T3, Protein deacetylase HDAC6 (Homo sapiens, UniProt Q9UBN7).
T3 sequence (Q9UBN7 whole entry): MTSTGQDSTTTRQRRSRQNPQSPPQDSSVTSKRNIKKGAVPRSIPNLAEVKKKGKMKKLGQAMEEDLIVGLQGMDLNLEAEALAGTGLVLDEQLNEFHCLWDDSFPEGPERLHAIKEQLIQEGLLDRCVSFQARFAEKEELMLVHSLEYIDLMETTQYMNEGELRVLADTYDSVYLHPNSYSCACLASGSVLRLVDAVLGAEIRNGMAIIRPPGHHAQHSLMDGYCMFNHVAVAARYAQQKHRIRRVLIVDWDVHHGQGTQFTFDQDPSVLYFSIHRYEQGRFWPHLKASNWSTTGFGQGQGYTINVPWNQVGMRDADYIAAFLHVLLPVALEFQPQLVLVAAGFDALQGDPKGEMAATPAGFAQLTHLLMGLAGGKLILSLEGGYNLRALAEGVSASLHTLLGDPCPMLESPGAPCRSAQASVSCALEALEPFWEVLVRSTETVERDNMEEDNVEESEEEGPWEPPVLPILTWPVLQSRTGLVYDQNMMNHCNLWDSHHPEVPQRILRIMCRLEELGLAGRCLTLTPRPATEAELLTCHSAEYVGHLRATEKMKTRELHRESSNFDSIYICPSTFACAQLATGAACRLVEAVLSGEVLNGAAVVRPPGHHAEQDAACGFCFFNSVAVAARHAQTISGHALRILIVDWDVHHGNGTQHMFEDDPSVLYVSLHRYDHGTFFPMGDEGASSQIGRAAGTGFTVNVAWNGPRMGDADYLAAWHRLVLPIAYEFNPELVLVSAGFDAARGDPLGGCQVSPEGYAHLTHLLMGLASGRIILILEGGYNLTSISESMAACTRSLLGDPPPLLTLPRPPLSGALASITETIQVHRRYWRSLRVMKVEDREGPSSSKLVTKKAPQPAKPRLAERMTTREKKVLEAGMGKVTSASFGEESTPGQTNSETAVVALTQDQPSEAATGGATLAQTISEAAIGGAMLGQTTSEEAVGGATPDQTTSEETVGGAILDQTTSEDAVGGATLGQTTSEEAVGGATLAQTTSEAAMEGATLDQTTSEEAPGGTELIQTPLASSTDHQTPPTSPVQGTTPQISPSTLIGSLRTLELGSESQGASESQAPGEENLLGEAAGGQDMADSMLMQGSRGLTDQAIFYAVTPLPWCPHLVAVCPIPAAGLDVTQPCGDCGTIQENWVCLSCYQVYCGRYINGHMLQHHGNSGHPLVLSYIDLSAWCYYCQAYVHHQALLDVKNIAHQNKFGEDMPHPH
As to the kind of experiment: Inhibition of human recombinant HDAC6 expressed in baculovirus infected insect High5 cells using Boc-Lys(epsilon-acetyl)-AMC as substrate by fluorescence assay.

The next assay relates to HCT-116. The assay is described as follows: Cytotoxicity against human HCT116 cells after 24 hrs by MTT assay. The settings on record: HCT-116, 24 h. Format: functional, cell-based. On the technique in general: Formazan colour is commonly taken as a measure of viable cells.
The target in assay [4] is T1, Histone deacetylase 1. The assay is described as follows: Inhibition of human recombinant HDAC1 expressed in baculovirus infected insect High5 cells using Ac-Lys-Tyr-Lys(epsilon-acetyl)-AMC as substrate at 20 ug/ml by fluorescence assay.
The target in assay [5] is T2, Histone deacetylase 3. The assay is described as follows: Inhibition of human recombinant HDAC3 expressed in baculovirus infected insect High5 cells using Ac-Lys-Tyr-Lys(epsilon-acetyl)-AMC as substrate at 20 ug/ml by fluorescence assay.
In assay [6] the target is T4, Protein deacetylase HDAC6 (Homo sapiens) (UniProt Q9UBN7).
T4 sequence (whole entry): T3 sequence (Q9UBN7 whole entry)
As to the kind of experiment: Inhibition of human recombinant HDAC6 expressed in baculovirus infected insect High5 cells using Boc-Lys(epsilon-acetyl)-AMC as substrate at 20 ug/ml by fluorescence assay.

pIC50: −log10 of the molar value. Active and inactive are the calls of the source. The calls are words filed in the database; no cut-off is given here.

T1 sequence (Q13547 whole entry): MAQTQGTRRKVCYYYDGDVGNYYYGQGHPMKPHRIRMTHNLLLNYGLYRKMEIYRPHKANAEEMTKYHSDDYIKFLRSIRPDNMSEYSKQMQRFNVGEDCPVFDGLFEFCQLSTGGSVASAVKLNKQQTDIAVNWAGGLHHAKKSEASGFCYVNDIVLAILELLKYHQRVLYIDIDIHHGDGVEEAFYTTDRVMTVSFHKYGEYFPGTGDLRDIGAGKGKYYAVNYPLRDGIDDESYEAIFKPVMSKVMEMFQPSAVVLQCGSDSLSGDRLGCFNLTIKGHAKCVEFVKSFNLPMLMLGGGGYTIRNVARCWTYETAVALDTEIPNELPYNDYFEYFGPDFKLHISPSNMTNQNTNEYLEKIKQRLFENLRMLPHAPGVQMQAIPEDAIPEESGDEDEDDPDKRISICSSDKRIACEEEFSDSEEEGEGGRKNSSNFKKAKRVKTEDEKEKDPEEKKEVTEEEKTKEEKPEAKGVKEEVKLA

Regarding `O=C(/C=C/C=C/CC/C=C/c1ccc2c(c1)OCO2)NO`, the pIC50 – broadly, −log10 of the IC50, conventionally taken in molar units – is 6.14 at Histone deacetylase 1 [1], 6.12 at Histone deacetylase 3 [2], 6.14 in assay [3] and 5.36 with HCT-116.
`O=C(/C=C/C=C/CCCCc1ccc2c(c1)OCO2)NO`: the pIC50 was 5.79 at Histone deacetylase 1 [1], 5.82 on Histone deacetylase 3 [2], 5.65 in assay [3] and 5.46 with HCT-116.
With `O=C(O)/C=C/C=C/c1ccc2c(c1)OCO2` [PIPERIC ACID], in the assay with HCT-116, the negative-log IC50 (pIC50) was less than 4.70. The inhibition result on Histone deacetylase 1 [4] and at Histone deacetylase 3 [5] was “inactive” throughout. Also, the inhibition – broadly, how much of the control response was suppressed – in assay [6] is less than 50%.
The compound `CC(C)CNC(=O)/C=C/C=C/c1ccc2c(c1)OCO2` [PIPERLONGUMININE] had a negative logarithm of the IC50 (pIC50) in the assay on HCT-116 of less than 4.70. The inhibition result at Histone deacetylase 1 [4] and on Histone deacetylase 3 [5] was “inactive” each time. The inhibition in assay [6] is less than 50%.
Turning to `O=C(O)/C=C/C=C/CCCCc1ccc2c(c1)OCO2`, the pIC50 in the assay on HCT-116 was less than 4.70. In addition, the inhibition (at Histone deacetylase 1 [4]; on Histone deacetylase 3 [5]; in assay [6]) was less than 50% in each case.
`O=C(/C=C/C=C/c1ccc2c(c1)OCO2)NO`: the values for the pIC50 (in assay [3]; with HCT-116) were 4.52 and 5.04, respectively. The inhibition entry on Histone deacetylase 1 [4] and on Histone deacetylase 3 [5] was “inactive” throughout.
`O=C(O)/C=C/C=C/CC/C=C/c1ccc2c(c1)OCO2`: the pIC50 with HCT-116 is less than 4.70. The inhibition (at Histone deacetylase 1 [4]; on Histone deacetylase 3 [5]; in assay [6]) was less than 50% in each case.
In turn, `CC(C)CNC(=O)/C=C/C=C/CC/C=C/c1ccc2c(c1)OCO2` [RETROFRACTAMIDE A] showed a pIC50 in the assay with HCT-116 of less than 4.70. Besides, the inhibition (at Histone deacetylase 1 [4]; on Histone deacetylase 3 [5]; in assay [6]) was less than 50% throughout.
